How the values were obtained:
Format in all cases: in vivo
[1] = tested on: Plutella xylostella; assay: Plutella xylostella leaf dip method (cabbage leaves); conditions: foliar, second instar larvae, 72 h after release, dead and moribund combined, compared to untreated control, read-out: Percent mortality
Protocol: The leaf dip method was used for testing, wherein the required quantity of the compounds were weighed and dissolved in a surfactant solution, kept on a Vortex at 2000 rpm with zirconia beads for 90 min for proper mixing and then diluted with 0.01% Triton-X solution to the desired test concentration. Cabbage leaves were dipped in the solution for 10 seconds, shade dried for 20 min and then transferred to bioassay trays. A single second instar larva was released into each bioassay tray cell and the tray was covered with a lid. The bio-assay trays were kept under laboratory conditions at a temperature of 25° C. and relative humidity of 70%. Observations on dead, moribund and living larvae were recorded at 72 h after the release. Percent mortality was calculated by combining dead and moribund larvae and comparing the result to the one of the untreated control.

[2] = tested on: Bemisia tabaci; assay: Bemisia tabaci leaf dip method (cotton leaves); conditions: foliar, freshly emerged adults, 72 h after release, dead and moribund combined, compared to untreated control, read-out: Percent mortality
Protocol: The leaf dip method was used for testing, wherein the required quantity of the test compounds were weighed and dissolved in surfactant solution, kepton a Vortex at 2000 rpm with zirconia beads for 90 min for proper mixing and then diluted with 0.01% Triton-X solution to the desired test concentration. Cotton leaves were dipped in the solution for 10 seconds, shade dried for 20 min and then the leaves were kept in glass units with the petiole dipped in water. Known numbers of freshly emerged adults were released and kept in the plant growth chamber at a temperature of 25° C. and relative humidity of 70%. Observations on dead, moribund and living adults were recorded at 72 h after the release. Percent mortality was calculated by combining dead and moribund adults and comparing the result to the one of the untreated control.

[3] = tested on: Myzus persicae; assay: Myzus persicae leaf dip method (capsicum leaves); conditions: foliar, third instar nymphs, 72 h after release, dead and moribund combined, compared to untreated control, read-out: Percent mortality
Protocol: The leaf dip method was used for testing, wherein the required quantity of the test compounds were weighed and dissolved in a surfactant solution, kept on a Vortex at 2000 rpm with zirconia beads for 90 min for proper mixing and then diluted with 0.01% Triton-X solution to the desired test concentration. Capsicum leaves were dipped in the solution for 10 seconds, shade dried for 20 min and then the leaves were kept in glass units with the petiole dipped in water. Known numbers of third instar nymphs were released into the glass units and then kept in the plant growth chambers at a temperature of 25° C. and relative humidity of 70%. Observations on dead, moribund and living nymphs were recorded at 72 h after the release. Percent mortality was calculated by combining dead and moribund nymphs and comparing the result to the one of the untreated control. The compounds 9 14 16 22 23 50 71 104 and 131 were showing efficacy higher than 70 percent mortality @ 300 PPM.

[4] = tested on: Helicoverpa armigera; assay: Helicoverpa armigera diet incorporation method; conditions: third instar larvae, 96 h after release, dead and moribund combined, compared to untreated control, read-out: Percent mortality
Protocol: Diet incorporation method was used, in which the required quantity of test compounds were weighed and dissolved in a surfactant solution, kept on vortex for 90 min for proper mixing, then was diluted with water to the desired test concentrations. The solutions were incorporated into semi-synthetic diet when the temperature reached approximately 50° C. in the bioassay containers. The diet and solution was stirred thoroughly for properly mixing and then left to cool for 30 min. The solidified diet was cut into equal pieces, and then each piece was transferred into one cell of the bio-assay trays. A single third starved instar larva was released into each of these cells of the bioassay trays and each tray was covered with a lid. The bio-assay trays were kept under laboratory conditions at a temperature of 25° C. and relative humidity of 70%. Observations on dead, moribund and alive larvae were recorded at 96 h after the release of the larvae. Percent mortality was calculated by combining dead and moribund larvae and comparing the result to the one of the untreated control.

[5] = tested on: Spodoptera litura; assay: Spodoptera litura diet incorporation method; conditions: third instar larvae, 96 h after release, dead and moribund combined, compared to untreated control, read-out: Percent mortality
Protocol: Diet incorporation method was used, in which the required quantity of test compounds were weighed and dissolved in surfactant solution, kept on vortex for 90 min for proper mixing, then diluted with water to the desired test concentrations. The solutions were incorporated into semi-synthetic diet when the temperature reached approximately 50° C. in the bioassay containers. The diet and solution was stirred thoroughly for properly mixing and was left to cool for 30 min. The solidified diet was cut into equal pieces, and then each piece was transferred into one cell of the bio-assay trays. A single starved third instar larva was released into each of these cells of the bioassay trays and the tray was covered with a lid. The bio-assay trays were kept under laboratory conditions at a temperature of 25° C. and relative humidity of 70%. Observations on dead, moribund and alive larvae were recorded at 96 h after the release of the larvae. Percent mortality was calculated by combining dead and moribund larvae and comparing the result to the one of the untreated control.

[6] = tested on: Nilaparvata lugens; assay: Nilaparvata lugens seedling dip method (paddy seedlings); conditions: third instar nymphs, 72 h after release, dead and moribund combined, compared to untreated control, read-out: Percent mortality
Protocol: Seedling dip method was used for screening, wherein the required quantity of the test compounds were weighed and dissolved in surfactant solution, kept on a Vortex at 2000 rpm with zirconia beads for 90 min for proper mixing, then diluted with 0.01% Triton-X solution to the desired test concentration. Paddy seedlings were dipped in the solution for 10 seconds, shade dried for 20 min and then transferred into glass tubes with the roots kept in water. Known numbers of third instar nymphs were released into the test tubes and the tubes were kept in the plant growth chamber at a temperature of 25° C. and relative humidity of 75%. Observations on dead, moribund and living nymphs were recorded at 72 h after the release. Percent mortality was calculated by combining dead and moribund nymphs and comparing the result to the one of the untreated control.

SMILES | mortality at 300 ppm [1] [%] | mortality at 300 ppm [2] [%] | mortality at 300 ppm [3] [%] | mortality at 300 ppm [4] [%] | mortality at 300 ppm [5] [%] | mortality at 300 ppm [6] [%]
CCSc1nn2c(-c3ccc(Cl)c(F)c3)ccnc2c1-c1nc2cc(C(F)(F)F)ncc2n1C [Compound 119, 2-(7-(4-Chloro-3-fluorophenyl)-2-(ethylthio)pyrazolo[1,5-a]pyrimidin-3-yl)-3-methyl-6-(trifluoromethyl)-3H-imidazo[4,5-c]pyridine] | > 70 | > 70 | – | – | – | –
CCSc1nn2c(C)cc(C)nc2c1-c1nc2cc(C(F)(F)F)cnc2n1C [Compound 9, 2-(2-(Ethylthio)-5,7-dimethylpyrazolo[1,5-a]pyrimidin-3-yl)-3-methyl-6-(trifluoromethyl)-3H-imidazo[4,5-b]pyridine] | > 70 | – | > 70 | – | – | –
CCSc1nn2c(C)ccnc2c1-c1nc2cc(C(F)(F)F)cnc2n1C [Compound 131, 2-(2-(Ethylthio)-7-methylpyrazolo[1,5-a]pyrimidin-3-yl)-3-methyl-6-(trifluoromethyl)-3H-imidazo[4,5-b]pyridine] | > 70 | – | > 70 | – | – | –
CCS(=O)(=O)c1nn2cc(Cl)cnc2c1-c1nc2cc(C(F)(F)F)cnc2n1C [Compound 50, 2-(6-Chloro-2-(ethylsulfonyl)pyrazolo[1,5-a]pyrimidin-3-yl)-3-methyl-6-(trifluoromethyl)-3H-imidazo[4,5-b]pyridine] | > 70 | – | > 70 | – | – | –
CCS(=O)(=O)c1nn2c(-c3ccc(Cl)c(Cl)c3)ccnc2c1-c1nc2cc(C(F)(F)F)cnc2n1C [Compound 104, 2-(7-(3,4-Dichlorophenyl)-2-(ethylsulfonyl)pyrazolo[1,5-a]pyrimidin-3-yl)-3-methyl-6-(trifluoromethyl)-3H-imidazo[4,5-b]pyridine] | > 70 | – | > 70 | > 70 | – | –
CCS(=O)(=O)c1nn2c(-c3cc(Cl)cc(Cl)c3)ccnc2c1-c1nc2cc(C(F)(F)F)cnc2n1C [Compound 26, 2-(7-(3,5-Dichlorophenyl)-2-(ethylsulfonyl)pyrazolo[1,5-a]pyrimidin-3-yl)-3-methyl-6-(trifluoromethyl)-3H-imidazo[4,5-b]pyridine] | > 70 | – | – | > 70 | > 70 | –
CCS(=O)(=O)c1nn2c(-c3ccc(F)cc3)ccnc2c1-c1nc2cc(C(F)(F)F)ncc2n1C [Compound 21, 2-(2-(Ethylsulfonyl)-7-(4-fluorophenyl)pyrazolo[1,5-a]pyrimidin-3-yl)-3-methyl-6-(trifluoromethyl)-3H-imidazo[4,5-c]pyridine] | > 70 | – | – | > 70 | > 70 | –
CCS(=O)(=O)c1nn2cc(-c3ccc(Cl)cc3)cnc2c1-c1nc2cc(C(F)(F)F)cnc2n1C [Compound 63, 2-(6-(4-Chlorophenyl)-2-(ethylsulfonyl)pyrazolo[1,5-a]pyrimidin-3-yl)-3-methyl-6-(trifluoromethyl)-3H-imidazo[4,5-b]pyridine] | > 70 | – | – | – | > 70 | > 70
CCSc1nn2cccnc2c1-c1nc2cc(C(F)(F)F)ncc2n1C [Compound 22, 2-(2-(Ethylthio)pyrazolo[1,5-a]pyrimidin-3-yl)-3-methyl-6-(trifluoromethyl)-3H-imidazo[4,5-c]pyridine] | > 70 | > 70 | > 70 | – | – | –
CCS(=O)(=O)c1nn2c(-c3ccc(Cl)c(F)c3)ccnc2c1-c1nc2cc(C(F)(F)F)cnc2n1C [Compound 118, 2-(7-(4-Chloro-3-fluorophenyl)-2-(ethylsulfonyl)pyrazolo[1,5-a]pyrimidin-3-yl)-3-methyl-6-(trifluoromethyl)-3H-imidazo[4,5-b]pyridine] | > 70 | – | – | > 70 | > 70 | –
CCS(=O)(=O)c1nn2c(-c3ccc(F)cc3)ccnc2c1-c1nc2cc(C(F)(F)F)cnc2n1C [Compound 25, 2-(2-(Ethylsulfonyl)-7-(4-fluorophenyl)pyrazolo[1,5-a]pyrimidin-3-yl)-3-methyl-6-(trifluoromethyl)-3H-imidazo[4,5-b]pyridine] | > 70 | – | – | > 70 | > 70 | –
CCS(=O)(=O)c1nn2cccnc2c1-c1nc2cc(C(F)(F)F)cnc2n1C [Compound 16, 2-(2-(Ethylsulfonyl)pyrazolo[1,5-a]pyrimidin-3-yl)-3-methyl-6-(trifluoromethyl)-3H-imidazo[4,5-b]pyridine] | – | – | > 70 | – | – | –
CCSc1nn2c(-c3ccc(OC(F)(F)C(F)F)cc3)ccnc2c1-c1nc2cc(C(F)(F)F)ncc2n1C [Compound 93, 2-(2-(Ethylthio)-7-(4-(1,1,2,2-tetrafluoroethoxy)phenyl)pyrazolo[1,5-a]pyrimidin-3-yl)-3-methyl-6-(trifluoromethyl)-3H-imidazo[4,5-c]pyridine] | > 70 | – | – | > 70 | > 70 | –
CCS(=O)(=O)c1nn2cc(-c3ccc(OC(F)(F)F)cc3)cnc2c1-c1nc2cc(C(F)(F)F)cnc2n1C [Compound 83, 2-(2-(Ethylsulfonyl)-6-(4-(trifluoromethoxy)phenyl)pyrazolo[1,5-a]pyrimidin-3-yl)-3-methyl-6-(trifluoromethyl)-3H-imidazo[4,5-b]pyridine] | > 70 | – | – | > 70 | > 70 | –
CCSc1nn2cccnc2c1-c1nc2cc(C(F)(F)F)cnc2n1C [Compound 14, 2-(2-(Ethylthio)pyrazolo[1,5-a]pyrimidin-3-yl)-3-methyl-6-(trifluoromethyl)-3H-imidazo[4,5-b]pyridine] | – | – | > 70 | – | – | –
CCS(=O)(=O)c1nn2cc(Br)cnc2c1-c1nc2cc(C(F)(F)F)cnc2n1C [Compound 71, 2-(6-Bromo-2-(ethylsulfonyl)pyrazolo[1,5-a]pyrimidin-3-yl)-3-methyl-6-(trifluoromethyl)-3H-imidazo[4,5-b]pyridine] | > 70 | – | > 70 | – | – | –
CCS(=O)(=O)c1nn2cccnc2c1-c1nc2cc(C(F)(F)F)ncc2n1C [Compound 23, 2-(2-(Ethylsulfonyl)pyrazolo[1,5-a]pyrimidin-3-yl)-3-methyl-6-(trifluoromethyl)-3H-imidazo[4,5-c]pyridine] | – | – | > 70 | – | – | –

Reference: US12384787B2, “Fused heterocyclic compounds and their use as pest control agents” (PI INDUSTRIES LTD., priority 2019, dated 2025)
